In patent US11046647B2, “Activators of the unfolded protein response” (The Board of Trustees of the University of Illinois, priority 2018, dated 2021):

Columns and labels:
[1] = tested on: ERα positive and ERα negative cells; type: cell-based
Protocol: ALAMAR BLUE RAPTINAL ASSAYS: Cells were plated at 4,000-10,000 cells/well (96 well plate), usually in 50 μl of medium. After about 18 hours, an additional 50 μl of medium containing 2× the desired final concentration of the test compound (C-105) was added to each well. After 24 hours Alamar Blue reagent was added and fluorescence in the wells was read (BMG PheraStar or Molecular Devices Spectra Max M3 Microplate Reader). % relative death was determined by setting the reading for raptinal-treated cells to 100% dead cells and the reading for vehicle-treated cells to 0% dead cells.
ERα positive MCF-7 breast cancer, Caov-3 ovarian cancer and ECC-1 uterine cancer cells and ERα negative MDA-MB-231 human breast cancer cells and HeLa, human cervical carcinoma cells and MCF-10A human mammary epithelial cells were plated at 10,000 cells/well (96 well plate) in 50 μl of medium. After about 18 hours, an additional 50 μl of medium containing 2× the desired final concentration of the test compound (C-105) was added to each well (final vol. 100 μl/well). After 24 hours Alamar Blue reagent was added and fluorescence in the wells was read after 1 hour (BMG PheraStar Microplate Reader). % relative death was determined by setting the reading for 10,000 nM raptinal-treated cells to 100% dead cells and the reading for vehicle-treated cells to 0% dead cells. (Data is the average ±SEM of 3 independent experiments with 5 biological replicates for each sample within each independent experiment.)
FIG. 3 compares the ability of (±)-105 to kill ERα positive and ERα negative cells. The dose response tests the ability of (±)-105 to rapidly kill ERα positive and ERα negative cells. […] After 24 hours Alamar Blue reagent was added and fluorescence in the wells was read. % relative death was determined by setting the reading for […] raptinal-treated cells to 100% dead cells and the reading for vehicle-treated cells to 0% dead cells. […]

TYS-Luc cells = assay: Long-term cell culture experiment (treat 2 weeks, regrow 4 weeks), MTS, TYS-Luc; type: cell-based, human
Protocol: To simulate the effect of several weeks of treatment of a tumor in a mouse xenograft, long-term cell culture experiments were performed. TYS-Luc cells (T47DERαY537S-Luc cells; ERαY537S is the most lethal ERα mutation seen in metastatic breast cancer) were plated at 4,000 cells/well in 96 well plates. […] After 2 weeks (medium change every 2 days) cell number was determined using MTS and a standard curve of absorbance versus cell number for TYS-Luc cells. Notes: (i) Bars denote the BHPI and (−)-105 arms of the experiment. No drug is present during regrow. […] This allows any surviving cells to regrow. After 4 weeks the cells were assayed using MTS. […] (Note: Visual inspection of the wells confirmed that there were no cells in the well treated for 2 weeks with active (−)-105.) To test whether the cells that regrew after BHPI treatment were resistant to BHPI they were re-treated for another cycle (BHPI Retreat) and shown to retain sensitivity to BHPI killing. (n=8 biological replicates ±SEM.

## O=C1Nc2c(C(F)(F)F)cccc2C1(c1ccc(O)cc1)c1ccc(OC(F)(F)F)cc1 (racemic) [(±)-105, 3-(4-hydroxyphenyl)-3-(4-(trifluoromethoxy)phenyl)-7-(trifluoromethyl)indolin-2-one]
[1]; 0-10,000 nM, 24 hours
  selectivity for ERα positive cancer cell lines: selective for ERα positive cancer cell lines
[1]; concentrations more than 10 times higher than those that kill ERα positive cells
  effect in ERα negative cell lines: no effect

## O=C1Nc2c(C(F)(F)F)cccc2C1(c1ccc(O)cc1)c1ccc(OC(F)(F)F)cc1 (single isomer, unassigned; (-)) [(−)-105, 3-(4-hydroxyphenyl)-3-(4-(trifluoromethoxy)phenyl)-7-(trifluoromethyl)indolin-2-one]
TYS-Luc cells; 1 μM for 2 weeks, then 4 weeks without drug
  regrowth of cells after drug removal: no regrowth
TYS-Luc cells; 1 μM, 2 weeks treatment
  TYS-Luc cells killed: 100%
